Among the data in ChEMBL document CHEMBL5212743, “Selectivity Literature for EUbOPEN Chemogenomics Library wave 3” (2023) are % of control and IC50 values, retold here.

Assay [1] has as its target G protein-coupled receptor kinase 4 (Homo sapiens) (UniProt P32298). Kind of assay: Selectivity interaction (KinomeScan (DiscoverX)) EUB0000702a GRK4. The conditions noted are these: at 1 µM.
The target of assay [2] is Ribosomal protein S6 kinase alpha-6 (Homo sapiens) (UniProt Q9UK32). The experiment in a line: Selectivity interaction (KinomeScan (DiscoverX)) EUB0000702a RPS6KA6. The conditions noted are these: at 1 µM.
Assay [3] deals with T1, Phosphatidylinositol 5-phosphate 4-kinase type-2 gamma (Homo sapiens) (UniProt Q8TBX8).
T1 sequence (whole entry): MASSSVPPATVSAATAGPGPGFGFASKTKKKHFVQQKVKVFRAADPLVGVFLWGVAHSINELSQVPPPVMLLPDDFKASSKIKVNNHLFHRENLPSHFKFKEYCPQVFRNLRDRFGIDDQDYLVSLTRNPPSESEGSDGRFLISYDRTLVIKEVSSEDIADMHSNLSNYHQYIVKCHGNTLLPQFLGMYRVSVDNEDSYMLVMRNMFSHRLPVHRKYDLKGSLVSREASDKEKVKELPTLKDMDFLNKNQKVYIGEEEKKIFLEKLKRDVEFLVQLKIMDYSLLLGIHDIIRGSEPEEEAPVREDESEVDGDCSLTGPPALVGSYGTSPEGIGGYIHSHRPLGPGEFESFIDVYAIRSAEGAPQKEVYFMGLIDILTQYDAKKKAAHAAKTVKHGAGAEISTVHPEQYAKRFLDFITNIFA
The experiment in a line: Selectivity interaction (KinomeScan (DiscoverX)) EUB0000178b PIP4K2C. The settings on record: at 1 µM.

The target in assay [4] is Mitogen-activated protein kinase kinase kinase kinase 5 (Homo sapiens) (UniProt Q9Y4K4). The conditions noted are these: at 1 µM.
The target in assay [5] is Tyrosine-protein kinase Blk (Homo sapiens, UniProt P51451). The conditions noted are these: at 1 µM.
Assay [6] deals with Proto-oncogene tyrosine-protein kinase Src (Homo sapiens, UniProt P12931). The conditions noted are these: at 1 µM.
The target of assay [7] is T2, Ephrin type-B receptor 6 (Homo sapiens) (UniProt O15197).
T2 sequence (whole entry): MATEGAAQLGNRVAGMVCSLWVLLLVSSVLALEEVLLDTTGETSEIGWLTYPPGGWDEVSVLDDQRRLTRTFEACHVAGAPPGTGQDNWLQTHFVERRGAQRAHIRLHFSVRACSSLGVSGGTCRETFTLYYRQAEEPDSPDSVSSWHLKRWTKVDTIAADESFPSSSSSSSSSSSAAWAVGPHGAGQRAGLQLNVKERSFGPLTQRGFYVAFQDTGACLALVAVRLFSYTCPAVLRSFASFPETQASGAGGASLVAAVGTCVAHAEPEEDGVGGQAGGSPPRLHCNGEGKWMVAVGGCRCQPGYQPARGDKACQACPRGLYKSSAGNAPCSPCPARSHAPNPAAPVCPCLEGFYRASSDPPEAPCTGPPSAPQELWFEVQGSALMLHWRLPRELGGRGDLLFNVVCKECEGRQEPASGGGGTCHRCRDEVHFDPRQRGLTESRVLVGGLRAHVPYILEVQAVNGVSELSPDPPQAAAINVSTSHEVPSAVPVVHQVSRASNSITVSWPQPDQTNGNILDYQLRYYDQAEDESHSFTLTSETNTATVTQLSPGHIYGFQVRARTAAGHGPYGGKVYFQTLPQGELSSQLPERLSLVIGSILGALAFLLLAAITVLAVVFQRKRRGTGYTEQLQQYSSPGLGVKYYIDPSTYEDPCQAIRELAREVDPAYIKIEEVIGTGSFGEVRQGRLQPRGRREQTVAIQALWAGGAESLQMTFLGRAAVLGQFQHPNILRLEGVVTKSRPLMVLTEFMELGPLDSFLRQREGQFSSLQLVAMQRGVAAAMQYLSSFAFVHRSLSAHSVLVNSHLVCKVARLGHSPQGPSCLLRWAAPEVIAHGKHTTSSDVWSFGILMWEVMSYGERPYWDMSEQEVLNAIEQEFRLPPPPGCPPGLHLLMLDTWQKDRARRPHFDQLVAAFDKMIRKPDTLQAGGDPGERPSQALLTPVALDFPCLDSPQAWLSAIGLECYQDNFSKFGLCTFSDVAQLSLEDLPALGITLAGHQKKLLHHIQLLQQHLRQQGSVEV
The settings on record: at 1 µM.

Assay [8] has as its target T3, Dual specificity mitogen-activated protein kinase kinase 5 (Homo sapiens, UniProt Q13163).
T3 sequence (Q13163 whole entry): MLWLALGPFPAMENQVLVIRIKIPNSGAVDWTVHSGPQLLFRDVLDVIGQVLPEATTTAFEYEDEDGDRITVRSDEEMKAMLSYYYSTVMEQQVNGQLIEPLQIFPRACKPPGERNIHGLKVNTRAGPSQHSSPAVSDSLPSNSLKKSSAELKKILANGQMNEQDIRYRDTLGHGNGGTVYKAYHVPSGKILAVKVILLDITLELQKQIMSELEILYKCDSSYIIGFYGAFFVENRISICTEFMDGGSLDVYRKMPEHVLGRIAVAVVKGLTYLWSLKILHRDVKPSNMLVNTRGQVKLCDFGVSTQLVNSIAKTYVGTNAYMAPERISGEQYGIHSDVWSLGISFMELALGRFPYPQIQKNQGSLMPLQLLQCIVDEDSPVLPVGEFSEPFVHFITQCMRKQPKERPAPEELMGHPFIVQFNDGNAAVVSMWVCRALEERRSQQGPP
The experiment in a line: Selectivity interaction (Enzymatic assay) EUB0000305b MAP2K5.

Assay [9] has as its target T4, Mitogen-activated protein kinase 12 (Homo sapiens) (UniProt P53778).
T4 sequence (whole entry): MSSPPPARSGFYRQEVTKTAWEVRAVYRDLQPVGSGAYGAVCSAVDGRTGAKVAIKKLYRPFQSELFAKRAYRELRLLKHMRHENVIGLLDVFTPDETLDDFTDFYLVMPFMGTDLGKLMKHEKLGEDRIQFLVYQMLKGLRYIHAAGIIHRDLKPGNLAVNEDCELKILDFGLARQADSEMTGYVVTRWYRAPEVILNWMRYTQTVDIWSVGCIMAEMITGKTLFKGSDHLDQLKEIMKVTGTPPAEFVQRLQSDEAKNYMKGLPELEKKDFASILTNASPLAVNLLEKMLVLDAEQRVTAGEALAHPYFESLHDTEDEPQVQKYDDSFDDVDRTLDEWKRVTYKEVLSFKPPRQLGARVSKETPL
The settings on record: at 10 µM.

Sequence of G protein-coupled receptor kinase 4 (Homo sapiens) (P32298 whole entry, looked up): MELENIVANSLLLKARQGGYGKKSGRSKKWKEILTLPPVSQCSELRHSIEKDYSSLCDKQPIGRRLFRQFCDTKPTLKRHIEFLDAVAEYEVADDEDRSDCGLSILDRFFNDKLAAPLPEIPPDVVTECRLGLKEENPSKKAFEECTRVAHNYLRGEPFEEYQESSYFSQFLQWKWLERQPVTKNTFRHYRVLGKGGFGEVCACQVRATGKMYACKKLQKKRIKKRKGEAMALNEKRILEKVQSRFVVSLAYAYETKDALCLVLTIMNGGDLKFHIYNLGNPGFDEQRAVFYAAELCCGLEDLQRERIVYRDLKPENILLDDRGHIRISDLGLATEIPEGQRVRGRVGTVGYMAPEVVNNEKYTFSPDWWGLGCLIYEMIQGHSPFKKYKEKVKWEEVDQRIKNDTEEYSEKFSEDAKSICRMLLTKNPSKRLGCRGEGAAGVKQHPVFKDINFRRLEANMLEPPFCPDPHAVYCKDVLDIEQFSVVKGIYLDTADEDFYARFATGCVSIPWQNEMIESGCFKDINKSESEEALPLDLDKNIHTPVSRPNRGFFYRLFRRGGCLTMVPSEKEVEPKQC
Sequence of Proto-oncogene tyrosine-protein kinase Src (P12931 whole entry, looked up): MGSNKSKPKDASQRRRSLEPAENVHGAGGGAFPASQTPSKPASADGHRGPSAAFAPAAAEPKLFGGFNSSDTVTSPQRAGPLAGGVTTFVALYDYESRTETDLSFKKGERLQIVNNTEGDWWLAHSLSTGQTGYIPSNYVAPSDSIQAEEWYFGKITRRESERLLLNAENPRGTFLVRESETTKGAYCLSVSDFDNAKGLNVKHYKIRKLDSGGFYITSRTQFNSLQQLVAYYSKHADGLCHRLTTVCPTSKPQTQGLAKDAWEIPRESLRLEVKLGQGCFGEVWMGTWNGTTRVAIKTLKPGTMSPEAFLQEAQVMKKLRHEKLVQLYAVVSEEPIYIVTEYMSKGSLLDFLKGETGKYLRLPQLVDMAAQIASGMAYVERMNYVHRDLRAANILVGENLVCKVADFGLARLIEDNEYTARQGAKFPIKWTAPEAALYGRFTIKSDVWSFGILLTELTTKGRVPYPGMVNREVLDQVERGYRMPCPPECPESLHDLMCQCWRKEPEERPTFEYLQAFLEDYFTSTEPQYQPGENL
Sequence of Tyrosine-protein kinase Blk (P51451 whole entry, looked up): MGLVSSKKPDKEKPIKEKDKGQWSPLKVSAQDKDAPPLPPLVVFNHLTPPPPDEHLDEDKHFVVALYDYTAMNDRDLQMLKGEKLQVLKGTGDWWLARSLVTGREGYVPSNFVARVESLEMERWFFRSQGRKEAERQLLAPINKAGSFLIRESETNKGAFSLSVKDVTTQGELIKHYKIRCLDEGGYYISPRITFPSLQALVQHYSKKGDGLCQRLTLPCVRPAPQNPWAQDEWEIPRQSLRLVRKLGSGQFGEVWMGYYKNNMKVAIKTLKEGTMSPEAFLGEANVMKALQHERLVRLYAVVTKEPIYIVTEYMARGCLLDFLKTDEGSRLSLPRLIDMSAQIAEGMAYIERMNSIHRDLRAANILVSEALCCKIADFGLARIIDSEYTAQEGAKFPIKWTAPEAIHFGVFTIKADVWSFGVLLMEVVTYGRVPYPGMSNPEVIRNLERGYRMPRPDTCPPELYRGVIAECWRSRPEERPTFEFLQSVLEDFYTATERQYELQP
Sequence of Mitogen-activated protein kinase kinase kinase kinase 5 (Homo sapiens) (Q9Y4K4 whole entry, looked up): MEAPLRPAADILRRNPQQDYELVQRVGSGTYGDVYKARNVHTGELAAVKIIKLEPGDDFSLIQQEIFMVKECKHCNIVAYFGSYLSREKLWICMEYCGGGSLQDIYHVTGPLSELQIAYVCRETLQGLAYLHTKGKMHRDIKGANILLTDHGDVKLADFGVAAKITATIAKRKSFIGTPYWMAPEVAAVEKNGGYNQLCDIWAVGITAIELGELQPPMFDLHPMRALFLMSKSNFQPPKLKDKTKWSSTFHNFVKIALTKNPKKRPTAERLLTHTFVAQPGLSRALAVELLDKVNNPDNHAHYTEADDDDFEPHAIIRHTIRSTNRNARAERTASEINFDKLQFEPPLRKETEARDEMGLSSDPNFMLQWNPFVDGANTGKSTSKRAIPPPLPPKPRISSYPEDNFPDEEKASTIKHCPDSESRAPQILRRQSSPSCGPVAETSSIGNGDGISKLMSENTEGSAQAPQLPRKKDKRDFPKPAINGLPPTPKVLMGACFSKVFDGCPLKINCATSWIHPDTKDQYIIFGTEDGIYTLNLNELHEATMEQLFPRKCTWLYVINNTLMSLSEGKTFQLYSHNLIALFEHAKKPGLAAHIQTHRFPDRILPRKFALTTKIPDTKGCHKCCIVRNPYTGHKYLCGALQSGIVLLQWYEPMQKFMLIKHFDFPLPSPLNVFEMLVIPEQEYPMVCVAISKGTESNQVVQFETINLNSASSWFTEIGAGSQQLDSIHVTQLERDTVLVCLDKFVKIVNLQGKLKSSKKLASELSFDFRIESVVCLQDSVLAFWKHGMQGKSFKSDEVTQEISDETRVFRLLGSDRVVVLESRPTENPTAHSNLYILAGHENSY
Sequence of Ribosomal protein S6 kinase alpha-6 (Homo sapiens) (Q9UK32 whole entry): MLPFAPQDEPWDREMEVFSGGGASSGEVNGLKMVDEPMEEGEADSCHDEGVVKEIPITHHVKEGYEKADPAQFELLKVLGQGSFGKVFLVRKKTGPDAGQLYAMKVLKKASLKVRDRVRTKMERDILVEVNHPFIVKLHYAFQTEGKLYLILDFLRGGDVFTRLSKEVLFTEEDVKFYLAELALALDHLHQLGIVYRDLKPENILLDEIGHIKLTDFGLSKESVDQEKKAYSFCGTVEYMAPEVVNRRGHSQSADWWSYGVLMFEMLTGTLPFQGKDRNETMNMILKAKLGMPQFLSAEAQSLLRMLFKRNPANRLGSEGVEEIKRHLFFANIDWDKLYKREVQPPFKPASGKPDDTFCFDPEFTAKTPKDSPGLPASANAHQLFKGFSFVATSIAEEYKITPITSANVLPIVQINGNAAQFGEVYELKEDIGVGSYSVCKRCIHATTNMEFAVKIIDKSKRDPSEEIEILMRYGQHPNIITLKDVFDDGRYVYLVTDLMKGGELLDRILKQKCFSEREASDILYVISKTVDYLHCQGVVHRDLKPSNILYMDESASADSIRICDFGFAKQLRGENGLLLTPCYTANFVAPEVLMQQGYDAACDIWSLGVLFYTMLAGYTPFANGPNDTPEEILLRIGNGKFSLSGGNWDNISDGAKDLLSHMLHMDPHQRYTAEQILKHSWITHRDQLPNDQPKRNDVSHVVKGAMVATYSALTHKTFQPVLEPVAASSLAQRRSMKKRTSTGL

As for `CN(c1ccnc(CNc2nc(Nc3ccc4c(c3)CC(=O)N4)ncc2C(F)(F)F)n1)S(C)(=O)=O` [PF-00911705], the % of control is 10% in [1] and 4.6% in [2]. In turn, `CN1C(=O)c2sccc2N(C)c2nc(Nc3ccc(S(N)(=O)=O)cc3)ncc21` had a % of control in [3] of 8%. For `CCOc1cn(-c2ccc(F)cc2C)nc1C(=O)Nc1ccc(Oc2ccnc3cc(OC)c(OC)cc23)c(F)c1`, the % of control in assay [4], in assay [5], in assay [6] and in assay [7] was less than 10% each time. With `C[C@H](c1ccnc(Nc2nc3ccc(-c4cc(N(C)C)ncn4)cc3[nH]2)c1)N1CCN(C(=O)CC(F)(F)F)CC1` [BAY-985], the IC50 in [8] amounted to 847 nM. The compound `CC[C@@H]1C(=O)N(C)c2cnc(Nc3ccc(C(=O)NC4CCN(C)CC4)cc3OC)nc2N1C1CCCC1` came in with a % of control in assay [9] of 112%.

Broadly, the IC50 is the concentration that inhibits the measured activity by half. Read a high IC50 as lower potency.
